Assay results: ChEMBL document CHEMBL3272051, “Some 9-hydroxycannabinoid-like compounds. Synthesis and evaluation of analgesic and behavioral properties” (J Med Chem, 1979)
Calls of active or inactive are those of the source. The calls are words filed in the database; no cut-off is given here.

How the values were obtained:
[1] = system: Canis familiaris; experiment: Effect on overt behavior in dog assessed as prostration at 4 to 10 mg/kg, iv; type: organism-based, Canis lupus familiaris; set-up: dose 4-10 mg/kg, route intravenous; details: in vivo
[2] = system: Canis familiaris; experiment: Effect on overt behavior in dog assessed as hyperreflexia at 0.05 to 10 mg/kg, iv; type: organism-based, Canis lupus familiaris; set-up: dose 0.05-10 mg/kg, route intravenous; details: in vivo
[3] = system: Mus musculus; experiment: Analgesic activity in mouse at 10 mg/kg, sc by tail-flick test; type: functional, organism-based; set-up: dose 10 mg/kg
[4] = system: Canis familiaris; experiment: Effect on overt behavior in dog assessed as depression at 0.05 to 10 mg/kg, iv; type: organism-based, Canis lupus familiaris; set-up: dose 0.05-10 mg/kg, route intravenous; details: in vivo
[5] = system: Canis familiaris; experiment: Effect on overt behavior in dog assessed as static ataxia at 0.05 to 10 mg/kg, iv; type: ADME, organism-based, Canis lupus familiaris; set-up: dose 0.05-10 mg/kg, route intravenous; details: in vivo
[6] = system: Mus musculus; experiment: Analgesic activity in sc dosed mouse by hot plate test; type: functional
[7] = organism: Mus musculus; experiment: Analgesic activity in mouse assessed as inhibition of p-phenylquinone-induced writhing relative to morphine; type: functional
[8] = organism: Mus musculus; experiment: animal or person; type: functional; details: Tail, sc
[9] = organism: Mus musculus; experiment: Analgesic activity in mouse by tail-flick test relative to morphine; type: functional
[10] = system: Mus musculus; experiment: Analgesic activity in mouse at 20 mg/kg, sc by hot plate test; type: functional, organism-based; set-up: dose 20 mg/kg
[11] = system: Mus musculus; experiment: Analgesic activity in mouse at 50 mg/kg, sc by hot plate test; type: functional, organism-based; set-up: dose 50 mg/kg

Structure (SMILES) | Activity [1] | Activity [2] | Activity [5] | ED50 [6] [mg/kg] | further results
CCCCCc1cc(O)c2c(c1)OC(C)(C)c1ccc(O)cc1-2 | Toxic | Non-toxic | Non-toxic | 35.6 | Activity [3]: inactive; Activity [4]: Toxic
CCCCCc1cc(O)c2c(c1)OC(C)(C)[C@H]1CC[C@H](O)C[C@H]21 | Toxic | – | – | – | –
CCCCCc1cc(O)c2c(c1)OC(C)(C)[C@@H]1CC[C@H](O)C[C@@H]21 | Toxic | – | – | – | –
CCCCCc1cc(O)c2c(c1)OC(C)(C)[C@@H]1CC[C@@H](O)C[C@@H]21 | Toxic | – | – | 1.6 | fold change (FC) [7]: 20; ED50 [8]: 1 mg/kg; fold change (FC) [9]: 5
CCCCCc1cc(O)c2c3c(c(=O)oc2c1)CCC(O)C3 (racemic) | Toxic | Non-toxic | Non-toxic | – | Activity [4]: Toxic; Activity [10]: inactive
CCCCCc1cc(O)c2c(c1)OC(C)(C)C1CCC(O)CC21 (racemic) | Toxic | – | – | 2.9 | –
CCCCCc1cc(O)c2c(c1)OC(C)(C)C1=C2CC(O)CC1 (racemic) | Toxic | Toxic | Toxic | – | Activity [11]: inactive
CCCCCc1cc(O)c2c(c1)OC(C)(C)[C@@H]1CC[C@@H](O)C=C21 (racemic) | Toxic | Toxic | Toxic | – | Activity [11]: inactive
CCCCCc1cc(O)c2c(c1)OC(C)(C)[C@@H]1CCC(C)=C[C@@H]21 [DRONABINOL] | Toxic | – | – | – | –
CN1CC[C@]23c4c5ccc(O)c4O[C@H]2[C@@H](O)C=C[C@H]3[C@H]1C5.Cl [MORPHINE HYDROCHLORIDE] | – | – | – | 1.2 | –
